Here are results for one substance from patent US10532085B2, “Methods for increasing intracellular activity of Hsp70” (Orphazyme A/S, priority 2010, dated 2020).

Data set [1] concerns primary fibroblasts from Mucopolysaccharidosis type IIIA patients. As to the kind of experiment: Volume of Acidic Compartment (VAC) by FACS, MPS IIIA fibroblasts. The data set is classed as cell-based, human. Particulars: added for 48 h, MPSIIIA GM00879. The protocol: FIG. 10: Test of rhHSP70 in non-sphingolipidosis. rhHSP70 was added for 48 h to primary fibroblasts from Sandhoff Disease and Mucopolysaccharidosis type IIIA (aka Sanfilippo type IIIA) patients (Coriell Cell Repository ID: Sandhoff: GM11098, MPSIIIA: GM00879). Ctrl=Normal Control fibroblasts. Read-out: Volume of Acidic Compartment (VAC) (Primary cellular pathology), performed by FACS.
On the technique in general: In flow cytometry, cells or beads pass a laser one at a time.

In a further data set the target is T1, ASM (Homo sapiens, UniProt P17405).
T1 construct: made in house
T1 sequence (P17405 47-631): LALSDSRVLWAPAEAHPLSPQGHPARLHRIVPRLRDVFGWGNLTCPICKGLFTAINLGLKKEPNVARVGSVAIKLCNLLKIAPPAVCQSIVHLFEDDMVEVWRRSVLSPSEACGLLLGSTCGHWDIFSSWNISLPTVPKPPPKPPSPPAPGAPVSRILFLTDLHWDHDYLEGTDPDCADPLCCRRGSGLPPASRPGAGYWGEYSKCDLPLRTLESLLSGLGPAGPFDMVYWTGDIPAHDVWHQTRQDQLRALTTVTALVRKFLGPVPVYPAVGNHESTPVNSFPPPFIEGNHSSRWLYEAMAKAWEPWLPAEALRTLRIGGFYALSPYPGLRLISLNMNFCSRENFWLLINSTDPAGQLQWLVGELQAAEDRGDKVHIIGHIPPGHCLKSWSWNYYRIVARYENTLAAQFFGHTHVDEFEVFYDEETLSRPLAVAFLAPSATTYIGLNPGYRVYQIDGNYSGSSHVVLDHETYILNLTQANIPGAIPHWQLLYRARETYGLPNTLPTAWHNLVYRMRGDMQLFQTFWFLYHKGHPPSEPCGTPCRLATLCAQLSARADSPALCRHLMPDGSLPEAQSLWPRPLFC
As to the kind of experiment: BIAcore: binding of ASM to BMP-containing LUVs after rHsp70 pretreatment. The text has this:
BMP binds ASM with high affinity and stimulates its ability to hydrolyze sphingomyelin to ceramide and phosphorylcholine. […] In order to test whether ASM is responsible for the lysosome stabilizing effect we treated the cells with desipramine, a well characterized pharmacological ASM inhibitor. […] It should be noted that akin to rHsp70, also rASM localized to the lysosomes.
For preparation of LUVs a lipid mixture consisting of 10 mol % sphingomyelin, 50 mol % phosphatidylcholine, 20 mol % cholesterol and 20 mol % BMP dissolved in organic solvents, was dried under a stream of argon and rehydrated in Tris/HCl buffer (pH 7.4). The mixture was freeze-thawed nine times in liquid nitrogen and then in an incubator at 37° C. After ultrasound bath for 15 min the mixture was passed 21 times through a polycarbonate membrane with a pore diameter of 100 nm. Surface plasmon resonance measurements were performed using a BIAcore 2000 system at 25° C. LUVs (total lipid concentration 0.1 mM) were immobilized on the surface of a L1 sensor chip (BIAcore) in PBS (loading buffer). The running buffer used was sodium acetate buffer (50 mM, pH 4.5). As a control, acid sphingomyelinase (0.2 μM, 60 μl in running buffer) was injected directly on the liposome surface. Response units between 4100 RU—5250RU were obtained. […]

In data set [2] the test system is NPC−/− mice. The data set can be described thus: NPC1 in vivo pilot study: organ weights. Particulars: 10 mg/kg IP three times per week; sacrificed at 7 or 9 weeks old. As for the experimental part:
(§1) Eight treated (rHSP70) NPC^−/− versus eight control (PBS only) NPC^−/− controls. Mice were treated IP three times per week with either 10 mg/kg of rHSP70 or vehicle alone (PBS) from 3 weeks of age. Three control and three treated mice were sacrificed at 7 or 9 weeks old (i.e. after 4 or 6 weeks of treatment, respectively). Organs were perfused (PBS), weighed and frozen for biochemical and immunohistochemical analysis.

For data set [3], the system named is NPC−/− mice. The data set can be described thus: NPC1 in vivo pilot study: tremor analysis. Particulars: automated tremor monitor; particularly pronounced in the lowest frequency range. As for the experimental part: as §1
Behavioural experiments were performed from 3 weeks of age, as described previously. Briefly, tremor analysis was performed using an automated tremor monitor (San Diego instruments) Gait analysis was performed by painting front and hind paws with non-toxic paint and allowing the mice to walk over Whatman 3M paper. Paw placement was measured to determine how closely their hind paws superimposed their front paws, the length of the stride and the width of their gait.

Data set [4] deals with NPC−/− mice. As to the kind of experiment: NPC1 in vivo pilot study: rearing analysis. The protocol:
as §1
Rearing analysis was performed only at 9 and 10 weeks of age. Briefly, animals are allowed to acclimatise in an open field box. After 5′, counts are made of the activity of the mice including the number of times the animal rears in the centre of the box without support, or at the edges of the box using the walls for support.

In data set [5] the test system is NPC−/− mice. The data set can be described thus: NPC1 in vivo pilot study: tissue GSLs (fluorescent HPLC). As for the experimental part:
as §1
Organs were homogenised without any added buffer and frozen as 10 ul aliquots. Fresh aliquots were reconstituted to 100 ul with PBS prior to biochemical analysis. Protein determination for each aliquot was performed by BCA protein assay. Cholesterol assays were performed using the Amplex Red Cholesterol Assay from Invitrogen^i. Sphingosine was isolated by sphingoid base extraction and analysed by HPLC^i. GSLs were extracted and analysed by fluorescent HPLC^i. All results were standardised for protein content.

On to “rHsp70: recombinant (human) heat shock protein 70; in some tests labelled with Alexa Fluor 488”, for which the “Volume of Acidic Compartment (VAC)” value in data set [1] is “effectively reverts the lysosomal primary pathology”. The figures for the “subsequent binding of ASM to BMP-containing LUVs” value with ASM (higher rHsp70 concentrations) and in the data set with ASM (pretreatment with rHsp70 at sub-equimolar concentrations) were “inhibitory effect” and “facilitated the subsequent binding of ASM”, respectively. For the same substance, the organ weights entry in the data set on NPC−/− mice [2] is on record as “No differences”. Further, the tremor result in the data set with NPC−/− mice [3] was “increased tremor from 3 weeks of treatment and remained increased until endstage”. For the same substance, the rearing result with NPC−/− mice [4] (after 6 treatment weeks) is “no difference”. Also, the “successfully completed vs failed rearing events” value in the data set with NPC−/− mice [4] (at 9 weeks, n=5 treated, n=4 control) was “only control mice failed to complete rearings”. The “GSLs in spleen and brain” value in the data set with NPC−/− mice [5] (7 weeks) is “reductions in spleen and brain, but are not statistically significant”. Also, the GSLs in liver result with NPC−/− mice [5] (7 weeks, p<0.05) is given as “significant reduction”. Besides, the GSLs in tissues entry with NPC−/− mice [5] (9 weeks) is given as “no significant differences”. For the same substance, the “fall of total GSL levels in the brain” value with NPC−/− mice [5] (at 9 weeks, compared with five-fold reduction in control mice) was “less severe”.
